Kd data for one compound are collected here from publication PMC9247443 (Frontiers in Pharmacology, 2022).

In the assay the target is human S1P5 (Homo sapiens, UniProt Q9H228). Kind of assay: Saturation radioligand binding with [^3H]-ozanimod. The settings on record: CHO cell membranes expressing human S1P5, saturation binding. The text has this:
Stable clones of Chinese hamster ovary (CHO) cells expressing human S1P1 and S1P5 were generated by transfecting the cells with the N-terminal hemagglutinin-tagged receptor in pcDNA3.1 expression vectors followed by antibiotic selection for S1P1 and S1P5 and picking of clones using cyclic adenosine monophosphate assay, fluorescence-activated flow cytometry using the associated tag as well as functional [^35S]-GTPγS binding assays. Stable clones of CHO cells expressing human S1P2, S1P3, and S1P4 with an N-terminal FLAG tag were purchased from Multispan, Inc. (Hayward, CA, United States; catalog numbers C1051-1, CG1049-1, and CG1052-1 for S1P2, S1P3, and S1P4, respectively). Cells were grown to confluence in adherent culture in 500-cm^2 culture trays before being detached with cell scraper in cell-lifting buffer (10 mM HEPES/154 mM NaCl/6.85 mM ethylenediaminetetraacetic acid [EDTA], pH 7.4) and pelleted by centrifugation for 5 min at 1000 rpm. […]
Filter plates were prepared by adding 80 μl/well of 0.3% poly (ethyleneimine) and incubating for 60 min at room temperature before washing with 150 ml of filtration buffer (50 mM Tris HCl [pH 7.4], 5 mM MgCl2, and 1 mM EDTA) using a FilterMate-96 harvester. […] Filter plates were then allowed to air dry before the addition of 50 μL/well of MicroScint-20 cocktail, plate sealing, and reading on a MicroBeta2 microplate scintillation counter. […]

Chain of human S1P5 (Q9H228 whole entry): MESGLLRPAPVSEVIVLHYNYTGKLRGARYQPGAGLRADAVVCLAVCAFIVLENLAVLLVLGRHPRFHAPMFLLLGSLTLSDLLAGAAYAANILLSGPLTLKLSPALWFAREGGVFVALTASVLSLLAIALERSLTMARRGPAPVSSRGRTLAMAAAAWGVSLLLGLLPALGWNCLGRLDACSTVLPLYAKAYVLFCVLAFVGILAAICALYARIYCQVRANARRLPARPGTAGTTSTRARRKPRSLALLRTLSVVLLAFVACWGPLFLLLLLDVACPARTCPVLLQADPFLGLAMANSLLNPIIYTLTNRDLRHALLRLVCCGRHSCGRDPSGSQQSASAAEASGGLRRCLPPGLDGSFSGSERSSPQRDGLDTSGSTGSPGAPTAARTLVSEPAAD

As to `[3H]CC([3H])(C)Oc1ccc(-c2nc(-c3cccc4c3CC[C@@H]4NCCO)no2)cc1C#N` (stereo partly shown) [[^3H]-ozanimod], the affinity, expressed as Kd, was 3.13 nM.
